For two compounds, GI50 and IC50 results are on record in US20090181972A1, “Novel Inhibitors of Cysteine Proteases, the Pharmaceutical Compositions Thereof and their Therapeutic Applications” (priority 2005, published 2009).

Assay [1] relates to PC-3 prostate cancer cells. Briefly: PC3 cell viability and proliferation assay (MTS). It counts as cell-based. The note with it: 72 hours incubation, mean of three independent experiments, read-out: PC3 GI50 D3. A digest of the protocol:
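PC-3 cells, seeded 24 h earlier, were treated in triplicate at 5 nM–10 μM with 0.5% final DMSO for 72 hours. Viability was read by 2-hour MTS conversion and absorbance at 492 nm. GI50 came from a sigmoidal variable-slope fit, averaged over three independent experiments.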

In assay [2] the target is Cathepsin B (Homo sapiens, UniProt P07858). Briefly: Cathepsin B activity assay. The note with it: 36 μM z-RR-AMC, 3.6 nM enzyme; pre-incubated 30 minutes at 25° C., 60 minutes at 37° C.; sigmoidal fit. Type of assay: biochemical. The method, then:
Cathepsin B was diluted in Cathepsin B buffer (20 mM Tris HCl pH 6.8; 1 mM EDTA; 1 mM DTT). Compounds stocks (100 mM) were stored at −20° C. in DMSO. Compounds were tested at the following final concentrations: 100 μM; 33.3 μM; 11.1 μM; 3.7 μM; 1.23 μM; 412 nM; 137 nM; 45.7 nM; 15.2 nM; 5 nM. Reactions were performed as duplicates in Black LJL 96 well plates (HE microplates; Molecular Devices; 20 μl final reaction volume). The substrate concentration for cathepsin B specificity assay was 36 μM (z-RR-AMC; Calbiochem). The concentration of the enzyme (Cathepsin B) in specificity assays was 3.6 nM. The concentrations were determined in order to perform specificity assays under initial velocities at fixed substrate concentration. Compounds were pre-incubated with enzymes for 30 minutes at 25° C. Reactions were initiated by addition of substrate to the plates containing the enzymes (+/− compounds) diluted in assay buffer. Reactions were incubated for 60 minutes at 37° C. Reactions were stopped by adding acetic acid (100 mM final). Readings were performed on a Pherastar Fluorescent Reader (BMG). δ Emission 380 nm; δ Excitation=460 nm. Data (mean values +/− standard deviation) were analyzed as % of control (no compound) and plotted as percentage versus the Log of the compound concentration using GraphPad (Prism). Data were fitted to a sigmoidal model (variable slope).

Consider “6-(7)-Chloro-1-methyl-2,3,4,10,10a-pentaaza-cyclopenta[b]fluoren-9-one [Example 3/A]”, for which the GI50 in assay [1] turned out to be 0.994 µM. The midpoint of inhibition in assay [2], the IC50, lay at 17.4 µM.

As to `CC(C)c1nnc2nc3c(nn12)C(=O)c1ccccc1-3` [Example 1l/A, 1-lsopropyl-2,3,4,10,10a-pentaaza-cyclopenta[b]fluoren-9-one], in assay [2], half-maximal inhibition (IC50) required 9.2 µM.
